Measured values from publication PMC12597212, “Biaryl Phosphate‐Based Inhibitors of the Transcription Factor STAT4” (Chemmedchem, 2025).

Columns and labels:
Format in all cases: binding
STAT1 = biological target: T1, STAT1 (Homo sapiens, UniProt P42224); assay: Competitive fluorescence polarization (FP) assay, STAT1; details: for IC50: 80-92 nM STAT1, 10 nM tracer peptide; for Ki: Ki calculated from IC50, mean ± SD, n = 3
T1 sequence (P42224 1-750): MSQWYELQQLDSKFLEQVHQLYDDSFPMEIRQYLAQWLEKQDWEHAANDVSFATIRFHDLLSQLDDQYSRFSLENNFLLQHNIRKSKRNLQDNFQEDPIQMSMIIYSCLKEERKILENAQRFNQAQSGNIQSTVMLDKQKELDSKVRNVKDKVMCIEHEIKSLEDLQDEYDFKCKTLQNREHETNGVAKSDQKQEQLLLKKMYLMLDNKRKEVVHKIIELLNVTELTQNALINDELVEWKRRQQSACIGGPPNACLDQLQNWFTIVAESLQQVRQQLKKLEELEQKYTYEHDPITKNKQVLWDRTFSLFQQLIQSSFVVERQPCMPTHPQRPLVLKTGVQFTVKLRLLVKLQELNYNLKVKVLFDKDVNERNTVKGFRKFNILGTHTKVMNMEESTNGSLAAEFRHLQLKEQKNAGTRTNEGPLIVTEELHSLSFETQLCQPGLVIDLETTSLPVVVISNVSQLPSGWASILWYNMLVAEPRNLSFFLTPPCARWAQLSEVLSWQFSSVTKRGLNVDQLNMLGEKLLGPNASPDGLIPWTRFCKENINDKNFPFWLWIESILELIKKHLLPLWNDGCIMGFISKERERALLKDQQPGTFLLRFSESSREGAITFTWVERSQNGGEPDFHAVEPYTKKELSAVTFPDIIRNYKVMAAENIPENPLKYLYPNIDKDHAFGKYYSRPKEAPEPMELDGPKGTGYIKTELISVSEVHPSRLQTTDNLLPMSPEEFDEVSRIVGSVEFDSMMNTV
Method: (§1) Fluorescence polarization assays
(§2) STAT4; 5-carboxyfluorescein-GpYDKPHVL for STAT1; 5-carboxyfluorescein-GpYLPQTV- […]
(§3) fluorescent-labeled peptide was added. Samples were transferred to 384-well microtiter plates […]
(§4) Experiments were carried out in triplicate. Percent binding was calculated based on a logarithmic curve fit using OriginPro 8G software. Conversion of IC50 values to Ki-values was […]
(§5) Error bars represent standard deviations. […]
(§6) Experiments were carried out in triplicate. […]

STAT5a = biological target: T2, STAT5a (Homo sapiens, UniProt P42229); assay: Competitive fluorescence polarization (FP) assay, STAT5a; details: for IC50: 125-177 nM STAT5a, 10 nM tracer peptide; for Ki: Ki calculated from IC50, mean ± SD, n = 3
T2 sequence (P42229 1-794): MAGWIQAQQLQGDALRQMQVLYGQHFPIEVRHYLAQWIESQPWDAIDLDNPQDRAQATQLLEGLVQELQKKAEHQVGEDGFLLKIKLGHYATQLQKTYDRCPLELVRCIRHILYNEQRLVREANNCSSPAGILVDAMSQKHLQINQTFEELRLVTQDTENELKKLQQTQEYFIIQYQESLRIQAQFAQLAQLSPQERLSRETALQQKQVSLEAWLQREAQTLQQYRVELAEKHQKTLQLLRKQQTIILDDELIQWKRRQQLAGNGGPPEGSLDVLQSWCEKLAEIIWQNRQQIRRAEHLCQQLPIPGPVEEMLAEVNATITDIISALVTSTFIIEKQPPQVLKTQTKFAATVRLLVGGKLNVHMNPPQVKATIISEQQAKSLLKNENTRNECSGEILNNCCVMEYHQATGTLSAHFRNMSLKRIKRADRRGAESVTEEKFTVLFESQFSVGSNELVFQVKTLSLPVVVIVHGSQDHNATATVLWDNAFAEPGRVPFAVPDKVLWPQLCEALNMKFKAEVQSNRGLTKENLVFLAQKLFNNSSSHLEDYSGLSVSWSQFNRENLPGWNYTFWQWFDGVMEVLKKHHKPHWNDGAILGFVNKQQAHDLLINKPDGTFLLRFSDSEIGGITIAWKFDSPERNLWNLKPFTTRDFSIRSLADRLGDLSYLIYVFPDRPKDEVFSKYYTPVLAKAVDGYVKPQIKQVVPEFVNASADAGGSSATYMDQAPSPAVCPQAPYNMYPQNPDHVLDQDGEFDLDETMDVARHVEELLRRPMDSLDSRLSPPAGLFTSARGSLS
Method: as §1, §2, §3, §4, §5, §6

STAT4 SH2 domain = biological target: T3, STAT4 SH2 domain (Homo sapiens, UniProt Q14765); assay: Competitive fluorescence polarization (FP) assay, STAT4; details: for IC50: 28 nM STAT4, 10 nM tracer peptide; for Ki: Ki calculated from IC50, mean ± SD, n = 3
T3 sequence (Q14765 1-748): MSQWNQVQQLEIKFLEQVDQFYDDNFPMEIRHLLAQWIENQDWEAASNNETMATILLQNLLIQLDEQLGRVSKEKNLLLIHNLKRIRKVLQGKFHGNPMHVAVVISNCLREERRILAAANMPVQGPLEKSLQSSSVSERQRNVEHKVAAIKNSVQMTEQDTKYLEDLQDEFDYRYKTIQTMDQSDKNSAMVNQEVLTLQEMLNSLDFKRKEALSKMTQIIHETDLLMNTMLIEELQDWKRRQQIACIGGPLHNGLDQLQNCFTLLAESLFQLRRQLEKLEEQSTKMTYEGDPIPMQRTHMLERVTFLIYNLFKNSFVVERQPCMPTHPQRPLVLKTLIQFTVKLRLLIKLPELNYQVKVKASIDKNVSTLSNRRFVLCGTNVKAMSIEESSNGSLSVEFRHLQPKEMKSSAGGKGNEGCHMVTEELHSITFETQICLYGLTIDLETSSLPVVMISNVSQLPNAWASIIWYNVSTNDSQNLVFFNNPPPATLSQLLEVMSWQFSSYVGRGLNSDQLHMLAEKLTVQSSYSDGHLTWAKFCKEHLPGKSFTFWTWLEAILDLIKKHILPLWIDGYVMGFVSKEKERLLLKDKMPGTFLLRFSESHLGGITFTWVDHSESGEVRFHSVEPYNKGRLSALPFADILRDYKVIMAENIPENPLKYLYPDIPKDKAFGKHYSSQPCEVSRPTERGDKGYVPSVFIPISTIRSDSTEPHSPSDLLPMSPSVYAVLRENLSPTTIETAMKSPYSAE
Method: as §1
Competitive fluorescence polarization assays were carried as previously described.[1] Proteins […]
fluorescent-labeled peptides were used as tracers: 5-carboxyfluorescein-GpYLPQNID-OH for STAT4; 5-carboxyfluorescein-GpYDKPHVL for STAT1; 5-carboxyfluorescein-GpYLPQTV-NH2 for STAT3; 5-carboxyfluorescein-GpYLVLDKW for STAT5a/b, and 5-carboxyfluorescein- […]
mM Tris (pH 8.0), 50 mM NaCl, 1 mM EDTA, 1 mM DTT, 0.1 % Nonidet P-40 substitute, 2 %
DMSO. Proteins and test compound were incubated for 1 h at room temperature before the […]
(1 picture or pasted object on this page, not shown here) […]
fluorescent-labeled peptide was added. Samples were transferred to 384-well microtiter plates and fluorescence polarization was read after an additional 60 min of incubation time.
Experiments were carried out in triplicate. Percent binding was calculated based on a logarithmic curve fit using OriginPro 8G software. Conversion of IC50 values to Ki-values was achieved using the published equation[2] embedded in the corresponding Excel spread sheet […]
https://websites.umich.edu/~shaomengwanglab/software/calc_ki/ind ex.html.
as §5, §6

SMILES | IC50 (STAT1) | Ki (STAT1) | IC50 (STAT5a) | Ki (STAT5a) | IC50 (STAT4 SH2 domain) | Ki (STAT4 SH2 domain)
O=P(O)(O)Oc1ccc(-c2ccsc2)cc1 [8a] | 20.2 µM | 9.2 ± 1 µM | 41 µM | 20 ± 0.2 µM | 1.2 µM | 0.56 ± 0.06 µM
O=P(O)(O)Oc1ccc(-c2cccs2)cc1 [8b] | 19.5 µM | 8.9 ± 0.5 µM | 14.8 µM | 7.3 ± 0.9 µM | 1.09 µM | 0.5 ± 0.03 µM
O=P(O)(O)Oc1ccc(-c2nccs2)cc1 [8c] | 83 µM | 38 ± 3 µM | 122 µM | 61 ± 3 µM | 8.8 µM | 4.1 ± 0.2 µM
Cc1cc(-c2ccc(OP(=O)(O)O)c(F)c2)cs1 [8f] | 9 µM | 4.4 ± 0.4 µM | 28 µM | 14 ± 1 µM | 0.37 µM | 0.18 ± 0.03 µM
O=P(O)(O)Oc1ccc2c(c1)Cc1ccccc1-2 [compound 11] | 14.3 µM | 6.5 ± 0.2 µM | 43 µM | 21 ± 1 µM | 1.52 µM | 0.61 ± 0.03 µM
O=P(O)(O)Oc1ccc2c(c1)oc1ccccc12 [compound 12] | 34.3 µM | 16 ± 1 µM | 55 µM | 27 ± 1 µM | 1.78 µM | 0.71 ± 0.08 µM
